According to US20220305012A1, “L[…] TREATING SLEEP ISSUES” (EISAI R&D MANAGEMENT CO., LTD., priority 2019, published 2022):

Legend:
[1] = test system: Subjects Having Insomnia Disorder; assay: Example 3: proportion of subjects whose ISI Total Score decreased by 7 or more points (pooled); type: in vivo, human; conditions: for percentage of subjects whose ISI Total Score decreased by 7 or more points: end of month 1, pooled Examples 1 and 2; for Total Insomnia Severity Index Score Decreased by ≥7 Points, Difference of proportion vs. Placebo / Total Insomnia Severity Index Score Decreased from Baseline to Month 1 by ≥7 Points, Responder No, n (%) / Total Insomnia Severity Index Score Decreased from Baseline to Month 1 by ≥7 Points, Responder Yes, n (%): Month 1
Protocol: The data collected in studies described in Example 1 and Example 2 were pooled and the response of each subject was analyzed.
Table 32 provides the summary and analysis of responders, defined as those subjects whose Total ISI Score decreased at the end of month 1 by 7 or more points compared to baseline. Table 33 provides the summary and analysis of responders, defined as those subjects whose ISI Total Score decreased compared to baseline and was less than 10 at month 1.

[2] = Example 2: plasma concentrations of lemborexant and metabolites; type: in vivo, human
Protocol: Within 5 minutes of the subject's mean habitual bedtime, study drug was administered and an overnight polysomnogram recording was initiated. At completion of the recording the following morning (Day 2), postural stability and cognitive performance were assessed. On the Day 2 evening, subjects returned to the clinic and a blood sample was collected before administering study drug, and then study drug was administered within 5 minutes of the subject's mean habitual bedtime. Again, a polysomnogram recording was initiated. The next morning (Day 3), postural stability and cognitive performance were assessed. A blood sample was also collected.
On the evening of Day 30, subjects returned to the clinic. A pre-dose blood sample was collected and study drug was again administered within 5 minutes of the subject's mean habitual bedtime. A polysomnogram recording was initiated. The following morning (Day 31), postural stability and cognitive performance were assessed and a blood sample was obtained. The ISI, FSS, EQ-5D-3L and PGI-Insomnia were administered. Blood and urine samples were collected for routine safety assessment. An electrocardiogram was performed, and vital signs and weight were assessed. The eC-SSRS was then administered to the subject. At 1.5 hours after waketime, subjects rated their morning sleepiness level.

[3] = Lemborexant 5 mg dose, Day 2 Post-Dose
[4] = Lemborexant 5 mg dose, Day 2 Pre-Dose
[5] = Lemborexant 5 mg dose, Day 29 Post-Dose
[6] = Lemborexant 5 mg dose, Day 29 Pre-Dose
[7] = Lemborexant 10 mg dose, Day 2 Post-Dose
[8] = Lemborexant 10 mg dose, Day 2 Pre-Dose
[9] = Lemborexant 10 mg dose, Day 29 Post-Dose
[10] = Lemborexant 10 mg dose, Day 29 Pre-Dose

Cc1ncc(OC[C@@]2(c3cccc(F)c3)C[C@H]2C(=O)Nc2ccc(F)cn2)c(C)n1 [Lemborexant, (1R,2S)-2-(((2,4-dimethylpyrimidin-5-yl)oxy)methyl)-2-(3-fluorophenyl)-N-(5-fluoropyridin-2-yl)cyclopropanecarboxamide]
percentage of subjects whose ISI Total Score decreased by 7 or more points ([1]; 5 mg): 47.3% | percentage of subjects whose ISI Total Score decreased by 7 or more points ([1]; 10 mg): 47.8% | Total Insomnia Severity Index Score Decreased by ≥7 Points, Difference of proportion vs. Placebo ([1]; Lemborexant 5 mg): 13.12 | Total Insomnia Severity Index Score Decreased from Baseline to Month 1 by ≥7 Points, Responder No, n (%) ([1]; Lemborexant 5 mg): 283 (48.6) n (%) | Total Insomnia Severity Index Score Decreased from Baseline to Month 1 by ≥7 Points, Responder Yes, n (%) ([1]; Lemborexant 5 mg): 275 (47.3) n (%) | Total Insomnia Severity Index Score Decreased by ≥7 Points, Difference of proportion vs. Placebo ([1]; Lemborexant 10 mg): 13.61 | Total Insomnia Severity Index Score Decreased from Baseline to Month 1 by ≥7 Points, Responder No, n (%) ([1]; Lemborexant 10 mg): 261 (44.7) n (%) | Total Insomnia Severity Index Score Decreased from Baseline to Month 1 by ≥7 Points, Responder Yes, n (%) ([1]; Lemborexant 10 mg): 279 (47.8) n (%) | difference of proportion of responders (ISI Total Score decreased by 7 or more points) versus placebo ([1]; both doses, month 1 (Table 32)): statistically significant | Plasma Concentrations, BLQ (<0.0500 ng/mL), n (%) [2, 3]: 6 (2.3) n (%) | Plasma Concentrations, Mean (SD) [2, 3]: 5.3 (2.55) ng/mL | Plasma Concentrations, Median [2, 3]: 5.0 ng/mL | Plasma Concentrations, BLQ (<0.0500 ng/mL), n (%) [2, 4]: 10 (3.9) n (%) | Plasma Concentrations, Mean (SD) [2, 4]: 2.1 (1.48) ng/mL | Plasma Concentrations, Median [2, 4]: 1.8 ng/mL | Plasma Concentrations, BLQ (<0.0500 ng/mL), n (%) [2, 5]: 6 (2.4) n (%) | Plasma Concentrations, Mean (SD) [2, 5]: 10.7 (6.66) ng/mL | Plasma Concentrations, Median [2, 5]: 9.1 ng/mL | Plasma Concentrations, BLQ (<0.0500 ng/mL), n (%) [2, 6]: 8 (3.1) n (%) | Plasma Concentrations, Mean (SD) [2, 6]: 7.3 (5.60) ng/mL | Plasma Concentrations, Median [2, 6]: 6.1 ng/mL | Plasma Concentrations, BLQ (<0.0500 ng/mL), n (%) [2, 7]: 5 n (%) | Plasma Concentrations, Mean (SD) [2, 7]: 11.5 ng/mL | Plasma Concentrations, Median [2, 7]: 10.4 ng/mL | Plasma Concentrations, BLQ (<0.0500 ng/mL), n (%) [2, 8]: 15 n (%) | Plasma Concentrations, Mean (SD) [2, 8]: 4.4 ng/mL | Plasma Concentrations, Median [2, 8]: 3.7 ng/mL | Plasma Concentrations, BLQ (<0.0500 ng/mL), n (%) [2, 9]: 6 n (%) | Plasma Concentrations, Mean (SD) [2, 9]: 21.1 ng/mL | Plasma Concentrations, Median [2, 9]: 19.6 ng/mL | Plasma Concentrations, BLQ (<0.0500 ng/mL), n (%) [2, 10]: 6 n (%) | Plasma Concentrations, Mean (SD) [2, 10]: 15.1 ng/mL | Plasma Concentrations, Median [2, 10]: 13.7 ng/mL
